Results from patent publication US20100081679A1, “DIAMINOPYRIMIDINES AS FUNGICIDES” (Bayer CropScience AG, priority 2007, published 2010).
Marks after values point to notes of the source that are not given here.

Assay: logP determination via retention times, calibrated with unbranched alkan-2-ones
Format: physicochemical
Settings: linear gradient 10% to 95% acetonitrile
[1] = HPLC on reversed-phase C18, method *: 40° C., mobile phase 0.1% aqueous formic acid and acetonitrile
[2] = HPLC on reversed-phase C18, method **: 43° C., mobile phase 0.1% aqueous phosphoric acid and acetonitrile
[3] = method *: HPLC reversed-phase C18, 40° C., 0.1% aqueous formic acid and acetonitrile
[4] = method **: HPLC reversed-phase C 18, 43° C., 0.1% aqueous phosphoric acid and acetonitrile

| Compound | logP [1] | logP [3] | other results |
| --- | --- | --- | --- |
| CCN(C(=O)OC)c1ccc(Nc2ncc(Br)c(NC3CC3)n2)cc1 [compound 303] | 2.06* |  |  |
| CCC(=O)c1cccc(Nc2ncc(Cl)c(NC3CC3)n2)c1 [compound 304] | 2.25* |  |  |
| CCC(=O)c1cccc(Nc2ncc(Br)c(NC3CC3)n2)c1 [compound 305] | 2.32* |  |  |
| CC(C)(C)NS(=O)(=O)c1ccc(Nc2ncc(Cl)c(NC3CC3)n2)cc1 [compound 306] |  |  | logP [2]: 2.3** |
| O=S(=O)(c1ccc(Nc2ncc(Cl)c(NC3CC3)n2)cc1)N1CCCC1 [compound 307] |  |  | logP [2]: 2.52** |
| CCOc1ccc(Nc2ncc(Br)c(NC3CC3)n2)cc1 [compound 308] | 1.87* |  |  |
| COC(=O)Nc1cccc(Nc2ncc(Br)c(NC3CC3)n2)c1 [compound 309] | 1.61* |  |  |
| CC1(c2ccc(Nc3ncc(Cl)c(NC4CC4)n3)cc2)CCCC1 [compound 310] | 3.42* |  |  |
| FC(F)Oc1cc(Nc2ncc(Br)c(NC3CC3)n2)ccc1Cl [compound 311] | 3.44* |  |  |
| CC(C)(C)C(=O)Nc1cccc(Nc2ncc(Cl)c(NCC3CC3)n2)c1 [compound 312] | 2.14* |  |  |
| Cc1cc(Nc2ncc(Cl)c(NC3CC3)n2)c(C)cc1N [compound 313] |  |  | logP [2]: 0.87** |
| O=S(=O)(Cc1ccc(Nc2ncc(Cl)c(NC3CC3)n2)cc1)N1CCOCC1 [compound 314] |  |  | logP [2]: 1.57** |
| CCOC(=O)C1(Nc2nc(Nc3ccccc3)ncc2Cl)CC1 [compound 315] | 2.17* |  |  |
| CCOC(=O)C1(Nc2nc(Nc3cccc(Cl)c3)ncc2Cl)CC1 [compound 316] | 3.13* |  |  |
| CCOC(=O)C1(Nc2nc(Nc3cc(OC)c(OC)c(OC)c3)ncc2Cl)CC1 [compound 317] | 2.01* |  |  |
| Clc1ccccc1C1(Nc2nc(Nc3ccccc3)ncc2Cl)CC1 [compound 318] | 3.66* |  |  |
| Clc1cccc(Nc2ncc(Cl)c(NC3(c4ccccc4Cl)CC3)n2)c1 [compound 319] | 5.18* |  |  |
| COc1cc(Nc2ncc(Cl)c(NC3(c4ccccc4Cl)CC3)n2)cc(OC)c1OC [compound 320] | 3.06* |  |  |
| Fc1ccc(Nc2ncc(Cl)c(NC3CC3)n2)cc1F [compound 321] | 2.59* |  |  |
| CSc1ccc(Nc2ncc(Cl)c(NC3CC3)n2)cc1C(F)(F)F [compound 322] | 3.48* |  |  |
| O=C1CCCN1c1cccc(Nc2ncc(Cl)c(NC3(c4ccccc4Cl)CC3)n2)c1 [compound 323] | 2.95* |  |  |
| CC(C)NS(=O)(=O)Cc1ccc(Nc2ncc(Cl)c(NC3CC3)n2)cc1 [compound 324] |  |  | logP [2]: 1.75** |

| Compound | logP [1] | logP [3] | other results |
| --- | --- | --- | --- |
| CC(C)NS(=O)(=O)Cc1cccc(Nc2ncc(Cl)c(NC3CC3)n2)c1 [compound 325] |  |  | logP [2]: 1.78** |
| CC(C)(C)NS(=O)(=O)Cc1ccc(Nc2ncc(Cl)c(NC3CC3)n2)cc1 [compound 326] |  |  | logP [2]: 1.99** |
| CC(C)(C)NS(=O)(=O)Cc1cccc(Nc2ncc(Cl)c(NC3CC3)n2)c1 [compound 327] |  |  | logP [2]: 2.05** |
| CC(C)(C)OC(=O)NCc1ccc(Nc2ncc(Br)c(NC3CC3)n2)cc1 [compound 329] | 2.02* |  |  |
| CC(C)(C)OC(=O)Nc1cccc(Nc2ncc(Cl)c(NC3CC3)n2)c1 [compound 330] | 2.27* |  |  |
| CC(C)OC(=O)Nc1cccc(Nc2ncc(Br)c(NC3CC3)n2)c1 [compound 331] | 2.11* |  |  |
| FC(F)Oc1cccc(Nc2ncc(Br)c(NC3CC3)n2)c1 [compound 332] | 2.66* |  |  |
| COC(c1cccc(Nc2ncc(Br)c(NC3CC3)n2)c1)C(F)(F)F (stereo not shown) [compound 333] | 2.82* |  |  |
| O=S(=O)(Cc1ccc(Nc2ncc(Cl)c(NC3CC3)n2)cc1)NC1CC1 [compound 334] |  |  | logP [2]: 1.58** |
| CCCNS(=O)(=O)Cc1cccc(Nc2ncc(Cl)c(NC3CC3)n2)c1 [compound 335] | 1.81* |  |  |
| CCCOc1cccc(Nc2ncc(Br)c(NC3CC3)n2)c1 [compound 336] | 2.83* |  |  |
| CO/N=C/c1ccc(Nc2ncc(Br)c(NC3CC3)n2)cc1 [compound 338] | 2.55* |  |  |
| COC(=O)N(C)c1ccc(Nc2ncc(Cl)c(NC3CC3)n2)cc1 [compound 339] | 1.63* |  |  |
| C#Cc1cccc(Nc2ncc(Br)c(NC3CC3)n2)c1 [compound 340] | 2.41* |  |  |
| O=C1CCCN1c1ccc(Nc2ncc(C(F)(F)F)c(NC3CC3)n2)cc1 [compound 342] |  |  | logP [2]: 2.12** |
| COc1cccc(Nc2ncc(Br)c(NC3CC3)n2)c1 [compound 343] | 1.9* |  |  |
| COc1ccc(Nc2ncc(Br)c(NC3CC3)n2)cc1 [compound 344] | 1.63* |  |  |
| CS(=O)(=O)c1ccc(Nc2ncc(Br)c(NC3CC3)n2)cc1 [compound 345] | 1.9* |  |  |
| CN(C)S(=O)(=O)c1ccc(Nc2ncc(Br)c(NC3CC3)n2)cc1 [compound 346] | 2.33* |  |  |
| CC(C)(C)C(=O)Nc1ccc(Nc2ncc(Br)c(NC3CC3)n2)cc1 [compound 347] | 1.83* |  |  |
| CC(=O)Nc1ccc(Nc2ncc(Br)c(NC3CC3)n2)cc1 [compound 348] | 1.31* |  |  |
| CC(=O)N(C)c1ccc(Nc2ncc(Br)c(NC3CC3)n2)cc1 [compound 349] | 1.54* |  |  |

| Compound | logP [1] | logP [3] | other results |
| --- | --- | --- | --- |
| O=C(Nc1ccc(Nc2ncc(Br)c(NC3CC3)n2)cc1)C(F)(F)F [compound 350] | 1.97* |  |  |
| CN(C)C(=O)c1ccc(Nc2ncc(Br)c(NC3CC3)n2)cc1 [compound 351] | 1.56* |  |  |
| CC(C)(C)NC(=O)c1ccc(Nc2ncc(Br)c(NC3CC3)n2)cc1 [compound 352] | 2.18* |  |  |
| CSc1ccc(Nc2ncc(Br)c(NC3CC3)n2)cc1 [compound 353] | 2.18* |  |  |
| O=S(=O)(c1cccc(Nc2ncc(Br)c(NC3CC3)n2)c1)N1CCCCC1 [compound 354] | 2.16* |  |  |
| CC(C)(C)C(=O)Cc1ccc(Nc2ncc(Br)c(NC3CC3)n2)cc1 [compound 355] | 2.39* |  |  |
| CCC(=O)c1ccc(Nc2ncc(Br)c(NC3CC3)n2)cc1 [compound 356] | 2.68* |  |  |
| CC(=O)c1ccc(Nc2ncc(Br)c(NC3CC3)n2)cc1 [compound 357] | 2.09* |  |  |
| CC(=O)c1cccc(Nc2ncc(Br)c(NC3CC3)n2)c1 [compound 358] | 1.85* |  |  |
| Clc1cccc(Nc2ncc(Br)c(NC3CC3)n2)c1 [compound 359] | 2.77* |  |  |
| CC(C)c1cccc(Nc2ncc(Br)c(NC3CC3)n2)c1 [compound 363] | 2.8* |  |  |
| Ic1cnc(Nc2ccccc2)nc1NC1CC1 [compound 364] |  | 1.82* |  |
| COC(=S)Nc1ccc(Nc2ncc(Cl)c(NC3CC3)n2)cc1 [compound 365] |  | 1.8* |  |
| Cc1ccc(Nc2ncc(Br)c(NC3CC3)n2)cc1O [compound 366] |  | 1.46* |  |
| O=C1OCCN1c1ccc(Nc2ncc(C(F)(F)F)c(NC3CC3)n2)cc1 [compound 367] |  | 1.94*; | logP [4]: 2.04** |
| O=C1CCCN1c1cc(Nc2ncc(Cl)c(NC3CC3)n2)ccc1Cl [compound 368] |  |  | logP [4]: 1.9** |
| O=S(=O)(Cc1ccc(Nc2ncc(Cl)c(NC3CC3)n2)cc1)Nc1ccccc1 [compound 369] |  | 2.18* |  |
| O=S(=O)(Cc1cccc(Nc2ncc(Cl)c(NC3CC3)n2)c1)Nc1ccccc1 [compound 370] |  | 2.15* |  |
| CCCNS(=O)(=O)Cc1ccc(Nc2ncc(Cl)c(NC3CC3)n2)cc1 [compound 371] |  | 1.79* |  |
| O=S(=O)(Cc1cccc(Nc2ncc(Cl)c(NC3CC3)n2)c1)NC1CC1 [compound 372] |  | 1.59* |  |
| O=C1CCCCN1Cc1cccc(Nc2ncc(Cl)c(NC3CC3)n2)c1 [compound 373] |  | 1.58* |  |
| N#Cc1ccc(Nc2ncc(Cl)c(NC3CC3)n2)cc1 [compound 374] |  | 2.33* |  |

| Compound | logP [1] | logP [3] | other results |
| --- | --- | --- | --- |
| FC(F)(F)Oc1ccc(Nc2ncc(Cl)c(NC3CC3)n2)cc1 [compound 375] |  | 2.84* |  |
| FC(F)(F)Sc1ccc(Nc2ncc(Cl)c(NC3CC3)n2)cc1 [compound 376] |  | 3.72* |  |
| CSc1ccc(Nc2ncc(Cl)c(NC3CC3)n2)cc1Cl [compound 377] |  | 2.84* |  |
| COC(=O)c1ccc(Nc2ncc(Cl)c(NC3CC3)n2)cc1Cl [compound 378] |  | 2.91* |  |
| CC(=O)Nc1ccc(Nc2ncc(Br)c(NC3CC3)n2)cc1Cl [compound 379] |  | 1.64* |  |
| CCN(C(C)=O)c1ccc(Nc2ncc(Br)c(NC3CC3)n2)cc1 [compound 380] |  | 1.73* |  |
| CCC(=O)Nc1cccc(Nc2ncc(Br)c(NC3CC3)n2)c1 [compound 381] |  | 1.54* |  |
| CNC(=O)c1ccc(Nc2ncc(Br)c(NC3CC3)n2)cc1 [compound 382] |  | 1.39* |  |
| CNC(=O)c1cccc(Nc2ncc(Br)c(NC3CC3)n2)c1 [compound 383] |  | 1.39* |  |
| O=C1NC(=O)C(c2ccc(Nc3ncc(Br)c(NC4CC4)n3)cc2)N1 (stereo not shown) [compound 384] |  | 0.62* |  |
| CCOC(=O)Nc1cccc(Nc2ncc(Br)c(NC3CC3)n2)c1 [compound 385] |  | 1.83* |  |
| CNC(=O)Oc1cccc(Nc2ncc(Br)c(NC3CC3)n2)c1 [compound 386] |  | 1.56* |  |
| CC(C)(C)OC(=O)Nc1ccc(Nc2ncc(Br)c(NC3CC3)n2)cc1 [compound 391] |  | 2.13* |  |
| COc1ccc(Nc2ncc(Br)c(NCC3CC3)n2)cc1OC [compound 409] |  | 1.68* |  |
| Brc1cnc(Nc2ccc3c(c2)OCO3)nc1NCC1CC1 [compound 418] |  | 1.83* |  |
| CNC(=O)c1ccc(Nc2ncc(Br)c(NCC3CC3)n2)cc1 [compound 424] |  | 1.58* |  |
| C=CCNC(=O)c1ccc(Nc2ncc(Br)c(NCC3CC3)n2)cc1 [compound 425] |  | 1.9* |  |
| CC(C)(C)NC(=O)c1ccc(Nc2ncc(Br)c(NCC3CC3)n2)cc1 [compound 426] |  | 2.3* |  |
| CNC(=O)c1cccc(Nc2ncc(Br)c(NCC3CC3)n2)c1 [compound 427] |  | 1.53* |  |
| CCOC(=O)Nc1cccc(Nc2ncc(Br)c(NCC3CC3)n2)c1 [compound 428] |  | 1.99* |  |
| CNC(=O)Oc1cccc(Nc2ncc(Br)c(NCC3CC3)n2)c1 [compound 429] |  | 1.68* |  |
